Source: patent publication US11786479B2, “Nucleic acid nanocapsules for drug delivery and targeted gene knockdown” (University of Connecticut, priority 2017, dated 2023)

Assays:
HeLa cells = test: MTS assay of PMA-treated HeLa cells with camptothecin-loaded MMP9-NANs; format: cell-based; settings: HeLa cells treated with PMA for 21 h
Description: In order to test the correlation between enzyme expression level within a live cell and the ability of the pep-NANs to be degraded, an additional assay was run in which HeLa cells were treated with phorbol 12-myristate 13-acetate (PMA), a known inducer of MMP9 expression in HeLa cells. Cells were incubated in serum-free media and treated with MMP9-NANs carrying camptothecin, a known apoptotic cancer drug. The toxicity of the drug loaded MMP9-NANs was evaluated using an MTS assay post 21 h PMA treatment, allowing enough time for MMP9 expression.

GATA-3 mRNA truncate [1] = test: Cleavage assay of mRNA truncate, polyacrylamide gel; format: biochemical; settings: 37° C., 4 h
Description: Cleavage Assay. To test the activity of the GATA-3 DNAzyme, both free DNAzyme and 5 μM of ligated NANs were incubated with 0.5 μM GATA-3 mRNA truncate, both in the presence and absence of salts (10 mM MgCl2 and 100 mM NaCl). The different reactions were then run on an 8% denaturing polyacrylamide gel at 350 V for 30 minutes. The gel was scanned using both a 473 nm laser and a 532 nm laser.

[2] = test system: mRNA truncate within the Au NP lipoplex; test: mRNA cleavage across AuNP-templated lipid bilayer (synthetic lipoplex); format: biochemical; settings: equal concentrations of DNAzyme
Source text: A synthetic lipoplex system was designed to help monitor mRNA cleavage across a lipid bilayer (FIG. 16A). This construct was built using a gold nanoparticle (Au NP) as it can support a simplified lipid bilayer system (FIG. 16B). At the Au NPs surface, both a thiolated DNA molecule and a thiolated PEG-DSPE molecule were assembled (1:2 ratio). The DNA at the surface serves as an anchoring site for the annealing of the 19mer mRNA truncate. For this assay, the same mRNA truncate that was utilized in the kinetics assay was used. Therefore, unless cleaved, the molecule should have limited fluorescence as it has both the BHQ quencher and FAM modifications. This construct was further encapsulated with DOPE, to form a bilayer around the AuNPs, a procedure previously disclosed (Shen et al. Nanoscale, 2016, 8, 14821-14835.) These particles were then subjected to either the free DNAzyme or DNAzyme-surfactants, and the extent of mRNA cleavage evaluated as a function of increases observed in overall fluorescence. To mimic more closely the DNz-surfactant that would results from the DNz-NANs post degradation by endosomal esterases, a modified surfactant which presented only two alkynes was synthesized, attached the DNA anchor to it, and ligated DNAzymes to the anchor to form a DNAzyme-surfactant conjugate. […] All conditions had equal concentrations of DNAzyme.

GATA-3 mRNA truncate [3] = test: Kinetics cleavage assay (BHQ-mRNA fluorescence); format: biochemical; settings: 10 nM DNAzyme, mRNA truncate 10-200 nM, 37° C.
Source text: Kinetics Cleavage Assay: To determine the kinetics of the cleavage of GATA-3 by both the free and NAN-bound DNAzyme, a fluorescence-based assay was developed. A mRNA truncate corresponding to the cleavable sequence in GATA-3 mRNA was purchased (BioSearch Technologies). The truncate, herein referred to as BHQ-mRNA, was functionalized with a quencher (BHQ1) at the 3′ end and a fluorescein derivative (FAM) at the 5′ end. […] All fluorescence measurements were taken using a Horiba Jobin Yvon fluorometer and, unless otherwise stated, all samples were excited at 470 nm and measurements taken from 485 nm to […]. Samples were heated to their stated temperature using a Cary single cell peltier accessory. A solution of MgCl2 (10 mM), NaCl (100 mM), DNAzyme (10 nM) and H2O was prepared in a total volume 400 μL. The DNAzyme solution was heated to 70° C. for ten minutes prior to mixing. The sample was cooled to and held at 37° C. in the fluorometer and an initial background reading was taken. BHQ mRNA (10 nM, BioSearch Technologies) was spiked into the sample and the fluorescence monitored over 20 minutes. Additional measurements were taken at 25, 50, 75, and 200 nM concentrations of mRNA. This same procedure was repeated for the DNAzyme-NAN (10 nM). […] All non-linear fits for assigning Vmax values were determined using Kaleidagraph 4.5 graphing software.

MCF-7 cells = test: Confocal microscopy uptake of TYE-665 labeled DNAzyme in MCF-7 cells; format: cell-based; settings: 4 hours of incubation
Description: FIG. 15 illustrates cellular uptake and targeted gene knockdown by DNAzyme-NANs in MCF-7 cells. (A) Confocal microscopy of free DNAzymes labeled with TYE-665 dye transfected into MCF-7 cells and monitored for evidence of cellular uptake post 4 hours of incubation. (B) Confocal microscopy of DNz-NANs incubated with cells without transfection agents in which the DNAzyme on the NAN was also labeled with TYE-665 dye. […] All scale bars are 20 μm. (C) GATA-3 mRNA knockdown in MCF-7 cells. 250 nM DNz-NAN is capable of knocking down mRNA by 60% compared to untreated cells (N=3, p=0.0016). […] Error bars represent the standard error of the mean (N=3). (D) MCF-7 cells treated with 250 nM DNz-NANs, monitored for GATA-3 mRNA levels via qRT-PCR at times ranging from 4 to 48 hours of incubation.
Targeted cleavage is only possible if the DNz-NAN can disassemble and the DNz-surfactants can escape the endosomal compartments of the cell post endocytosis. To study the suitability of the DNz-NAN for cellular uptake and stability of its DNAzyme ligands in the cell, the DNz-NANs were first incubated in 10% fetal bovine serum to mimic exposure to cellular nucleases. […] 1 μM Dye-DNz-NANs were incubated with MCF-7 cells for 4 hr and monitored for evidence of uptake using confocal microscopy (FIGS. 15A and 15B). […]

CCCCCCCCCCCCCC(=O)O[C@@H]1[C@@H](C)[C@@]2(O)[C@@H](C=C(CO)C[C@]3(O)C(=O)C(C)=C[C@@H]23)[C@@H]2C(C)(C)[C@]12OC(C)=O [PMA, phorbol 12-myristate 13-acetate]
no toxicity up to (HeLa cells): up to 150 ng/mL

DNAzyme: GATA-3 targeting DNAzyme (hgd40), SEQ ID NO:2 (DNA GTGGATGGAGGCTAGCTACAACGAGTCTTGGAG; GATA-3 DNAzyme; misc_structure (1)..(1) monophosphorylated site)
cleavage of truncated GATA-3 mRNA (gel) (GATA-3 mRNA truncate [1]): complete cleavage | access to and cleavage of mRNA truncate across lipid bilayer (fluorescence) [2]: limited change in signal | Km (GATA-3 mRNA truncate [3]): 0.059 µM | cellular uptake (TYE-665 signal) (MCF-7 cells): TYE signal could be observed in the perinuclear region of the cells
